Results on nine compounds are retold here after patent publication US8487009B2, “1,2-diphenylethene derivatives for treatment of immune diseases” (Glaxo Group Limited, priority 2001, dated 2013).

Structures are written as SMILES. pIC50: −log10 of the molar value. Read-outs that look alike come from different tables or passages of the source.

The subject of one experiment is T-cell proliferation. Briefly: T-cell proliferation ([3H]thymidine uptake, C57BL/6 responders with mitomycin C treated BALB/C feeder cells). The format is cell-based. The conditions noted are these: murine T-cells, read-out: Concentration that provides 50% inhibition of T-cell proliferation, IC50. As to the method: T-cell assay is commonly employed as a primary platform for testing of activities that modulate immune and inflammatory activities in many diseases. Assays of antigen non-specific T-cell proliferation and antigen-specific proliferation are often used in the tests.
(§1) To determine the effect of the inventive compounds on non-specific and specific antigen induced T-cell proliferation, compounds were tested at a range of concentrations as outlined by the following protocol: Murine lymph nodes were removed aseptically and cell suspensions were prepared in RPMI-1640. Single lymphocytes were isolated over Lymphocyte-M by centrifugation at 22° C. and 1800 g for 15 min, and then washed three times (500 g for 5 min at 22° C.). Adherent cells were depleted by cytoadherence to fibronectin-coated plastic culture dish (twice at 37° C. for 45 min). T-cells isolated by incubating cell suspensions in a nylon wool column for 2 h at 37° C. and use for subsequent experiments were greater than 95% viable, as determined by trypan blue exclusion. Feeder cells were prepared by treating BALB/C spleen cells with mitomycin C (50 μg/ml, for 20 min at 37° C.) followed by five times washing using a large volume of Hank's solution. C57BL/6 Responders (2×10^5) was incubated in duplicate with the mitomycin C treated BALB/C feeder cells (2×10^5) in 96-well, round-bottomed, microtitre plates (Costar Laboratories, Worcester, Mass.) with complete medium (RPMI 1640 with 25 mM Hepes and L-glutamine supplemented with […] 2-mercapto-ethanol, 10% fetal cow serum (FCS), 10,000 unit of penicillin, and 10 mg of streptomycin per 100 ml of medium) at 37° C., 5% CO2. After 96 h, the culture wells received [^3H]thymidine ([^3H]TdR; 1 μCi/well) and proliferation was assessed at 16 h by harvesting cells onto glass fiber filter paper and counting in a β-counter.

For another experiment, the system named is IL-2 production. As to the kind of experiment: IL-2 production from Con A activated T-cells (ELISA). The format is cell-based, murine. The conditions noted are these: read-out: Inhibitory activity against IL-2 production, IC50. As to the method:
as §1
(§2) To determine the effect of inventive compounds on IL-2, IL-4 and IFN-γ production from activated T-cells, the following assays were performed using the protocol outlined above for T-cells. The T-cell was activated by concanavalin A (Con A) and incubated, cytokines in the supernatants were assayed by commercial immune-linked immunosorbent assay (ELISA) kits.
(In an ELISA, binding on a coated surface is turned into a signal by an enzyme label.)

A further experiment deals with IFN-γ. As to the kind of experiment: IFN-γ production from Con A activated T-cells (ELISA). The format is cell-based, murine. The conditions noted are these: read-out: Concentration for 50% of inhibition of IFN-γ, IC50. As to the method: as §1, §2
The test system of another experiment is TNF-α production. As to the kind of experiment: TNF-α production by macrophage cells (ELISA). The format is cell-based. The conditions noted are these: murine macrophage cells, 24 h; for Effect on TNF-α production, % of control: 10 μM; for activity at 10 µM: Mus musculus, read-out: Effect on TNF-α production, % of control. An excerpt:
(§3) Macrophages are very important components of the host defense system, but they are also involved in the development of tissue injury during inflammation in some human disease. Efficient antagonists can block subsequent symptoms (skin redness, edema, pain and dysfunction) of inflammation. CD86 expression, nitric oxide and TNF-α production are experimental indicators of macrophage function in vivo. CD86 expression by antigen presenting cells, including dendritic cells, macrophages and activated B cells, is necessary for interaction with T-cell CD28, which is necessary for T-cells to be fully activated. Nitric oxide is a potent microbiological macrophage product. TNF-α is a pro-inflammatory cytokine important in recruitment and stimulation of inflammatory cells. The effect of inventive compounds on the TNF-α production by macrophage cells was tested using the following protocol: Murine macrophage cells were lifted from adherent culture and resuspended in 10% FCS in DMEM. Cells (5×10^4/well) were aliquoted into flat bottom, tissue culture-treated microtitre plates and lipolysaccharide, N-acetylcysteine, test compound or vehicle controls were added. The cells were incubated at 37° C., 5% CO2 for 24 h and the culture supernatant removed for TNF-α ELISA, and CD86 expression was determined by FACS analysis on flow cytometer.

In experiment [1] the test system is induced edema in Balb/c mouse. As to the kind of experiment: TPA induced mouse ear edema model. The format is in vivo. The conditions noted are these: single topical administration. As to the method: Briefly, Balb/c mouse ear edema was induced by phorbol-12-myristate-13-acetate (TPA) by adding 20 ul of 0.01% (w/v) to the right ear of each mouse. Each test compound dissolved in the same vehicle (ethanol) as TPA was applied separately to the right ear of each moue. The mouse ear edema of each test compound was compared with that of the TPA and expressed as % of inhibition.

Experiment [2] relates to CD86 expression in murine macrophages. Briefly: CD86 expression in murine macrophages (FACS). The format is cell-based. The conditions noted are these: 10 μM, 24 h.
Description: as §3

Experiment [3] concerns histamine release by mast cells. Briefly: Histamine release by mast cells derived from mouse bone marrow (hexosamindase activity). The format is cell-based. The conditions noted are these: Mast cell, read-out: Effect on histamine release by mast cells, IC50. On the procedure: Histamine is an important mediator and is involved in a wide range of biological activities, including inflammation and allergy. The activity of representative compounds, against histamine release was tested using a standard mast cell assay (Arquardt, C. et al. 1986. Am Rev Respir Dis 133:1105-1109). The mast cells were derived from mouse bone marrow. The histamine release was measured by the hexosamindase activity.

The subject of experiment [4] is crystal induced neutrophil activation. As to the kind of experiment: Crystal (calcium pyrophosphate dihydrate) induced neutrophil activation, chemoluminescence. The format is cell-based, human. The conditions noted are these: 25 μM. On the procedure:
(§4) Neutrophils predominate over other cell types in many variants of acute and chronic inflammatory condition. Effect of the inventive compounds was tested on human neutrophil activation by chemoattractant [N-formyl-methionyl-luecyl-phenylalanine (FMPL)] and crystal (calcium pyrophosphate dihydrate) using an established protocol (Tudan, C. 1999. Biochem. Pharmacol 58:1869-1880).
(§5) Neutrophils were prepared from freshly collected human citrated whole blood. Briefly, 400 ml of blood were mixed with 80 ml of 4% dextran in Hanks buffered saline solution (HBSS) pH 7.4 and allowed to settle for 1 hour. Plasma was collected continuously and 5 ml applied to 5 ml of Ficoll Paque (Pharmacia) in 15 ml polypropylene tubes. Following centrifugation at 500 g for 30 minutes, the neutrophil pellets were washed free of erythrocytes by 20 seconds of hypotonic shock. Neutrophils were resuspended in HBSS, kept on ice and used for experiments within 3 h. Neutrophil viability and purity was always greater than 90%. Solutions of test compounds were added to neutrophils at 5,000,000 cells per ml under mild vortexing. Cells were incubated for 20 minutes at 33° C. then for 10 minutes at 37° C. before addition to crystals or chemoattractants for neutrophil activation. Chemoluminescence was monitored using an luminometer at 37° C.

For experiment [5], the system named is FMLP induced neutrophil activation. Briefly: FMLP induced neutrophil activation, chemoluminescence. The format is cell-based. The conditions noted are these: Homo sapiens, read-out: FMLP induced neutrophil activation, Chemoluminescence (mV), % of control. As to the method:
as §4, §5

Turning to `CC(C)c1c(O)cc(C(C#N)=Cc2ccccc2)cc1O` [2-(3,5-Dihydroxy-4-i-propylphenyl)-3-phenylpropenylnitrile], the figures for the pIC50 in the experiment on T-cell proliferation, with IL-2 production and in the experiment with IFN-γ were 5.46, 6.89 and 6.07, respectively. Besides, the “Effect on TNF-α production, % of control” value in the experiment with TNF-α production came to 60%. Also, the “% inhibition of edema” value in experiment [1] stood at 85.2%.

On to `CC(C)c1c(O)cc(C=Cc2ccccn2)cc1O.Cl` [2-[2-(3.5-Dihydroxy-4-i-propylphenyl)ethenyl]pyridine hydrochloride], for which the pIC50 in the experiment with T-cell proliferation was 5.68. Also, the “Effect on TNF-α production, % of control” value with TNF-α production came out at 75%. Moreover, in experiment [2], the “Effect on CD86 expression in murine macrophages, % of control” value (shortened to “Effect on CD86 expression … % of control”) is 88%.

On to `CC(C)c1c(O)cc(C=Cc2cccs2)cc1O` [2-i-Propyl-5-(2-thiophene-2-ylethenyl)-1,3-benzenediol], for which the pIC50 is 5.29 in the experiment with T-cell proliferation (Mus musculus, T-cell); 7.55 in the experiment on IL-2 production (Mus musculus, T-cell); 7.10 with IFN-γ (Mus musculus, T-cell); 4.72 in [3]. In addition, the activity at 10 µM in the experiment with TNF-α production turned out to be 50%. The “Effect on CD86 expression … % of control” value in experiment [2] came out at 2%.

Turning to `CC(C)c1c(O)cc(C=C(C#N)c2ccccc2)cc1O` [3-(3,5-Dihydroxy-4-i-propylphenyl)-2-phenylpropenylnitrile], the pIC50 with T-cell proliferation was 5.74; in the experiment with IFN-γ, 6.15. Besides, in experiment [2], the “Effect on CD86 expression … % of control” value stood at 16%.

As for `CC(=Cc1ccccc1)c1cc(O)c(C(C)C)c(O)c1` [5-(1-Methyl-2-phenylethenyl)-2-i-propyl-1,3-benzenediol], the pIC50 in the experiment with T-cell proliferation (Mus musculus, T-cell) was 5.83; in the experiment with IFN-γ (Mus musculus, T-cell) it was 5.79. The “Effect on CD86 expression … % of control” value in experiment [2] is listed as 0%.

Regarding `CC(C)c1c(O)cc(C=C(c2ccccc2)c2ccccc2)cc1O` [5-(2,2-Diphenylethenyl)-2-i-propyl-1,3-benzenediol], in the experiment with IFN-γ (Mus musculus, T-cell), the pIC50 is 5.77. Besides, the “Effect on CD86 expression … % of control” value in experiment [2] is reported as 10%.

For `CC(=Cc1cc(O)cc(O)c1)c1ccccc1` [5-(2-Methyl-2-phenylethenyl)-1,3-benzenediol], the pIC50 in the experiment on T-cell proliferation (Mus musculus, T-cell) is 5.33; in the experiment with IL-2 production (Mus musculus, T-cell), 5.75. In addition, the activity at 10 µM with TNF-α production was found to be 42%. The “Effect on CD86 expression … % of control” value in [2] amounted to 90%.

Regarding `CC(=Cc1cc(O)c(C(C)C)c(O)c1)c1ccccc1` [5-(2-Methyl-2-phenylethenyl)-2-i-propyl-1,3-benzenediol], the pIC50 in the experiment on T-cell proliferation (Mus musculus, T-cell) is 5.94; in the experiment with IL-2 production (Mus musculus, T-cell), 6.40. Further, the “Effect on CD86 expression … % of control” value in [2] was 51%. Moreover, the “Crystal induced neutrophil activation, chemoluminescence (mV) as % of the control” value in experiment [4] (time 1 minute) is reported as 23%; in [4] (time 2 minutes), 10%; in experiment [4] (time 3 minutes), 7%; in experiment [4] (time 4 minutes), 6%; in experiment [4] (time 5 minutes), 6%; in experiment [4] (time 7 minutes), 16%. In experiment [4] (time 10 minutes), the “Crystal induced neutrophil activation, chemoluminescence (mV) as % of the control” value came to 29%. Further, the activity at 25 µM in experiment [5] stood at 30%.

Consider `C=C1/C(=C\C=C2/CCC[C@]3(C)[C@@H]([C@H](C)CCCC(C)(C)O)CC[C@@H]23)C[C@@H](O)C[C@@H]1O` [calcitriol, reference compound], for which the “% inhibition of edema” value in experiment [1] (0.01% calcitriol) came out at 31.2%.
